Measurements: ChEMBL document CHEMBL4627258, “Photo effect on the CD1d-binding ability of azobenzene-attached analogues of α-GalCer” (Bioorg Med Chem Lett, 2020)

Key:
Format in all cases: protein assay
[1] = molecular target: T1, Antigen-presenting glycoprotein CD1d (Mus musculus) (UniProt P11609+P11610); assay: Binding affinity to WTB6 mouse spleen CD1d assessed as restriction ratio for reduction in iNKT/CD1d interaction by FACS analysis relative to control
[2] = molecular target: T1, Antigen-presenting glycoprotein CD1d (Mus musculus); assay: Binding affinity to WTB6 mouse thymus CD1d assessed as restriction ratio for reduction in iNKT/CD1d interaction by FACS analysis relative to control
[3] = molecular target: T1, Antigen-presenting glycoprotein CD1d (Mus musculus); assay: Binding affinity to CD1d in Traj18 knock out C57BL/6 mouse assessed as restriction ratio for reduction in iNKT/CD1d interaction by FACS analysis relative to control

Structure (SMILES)	Ratio [1] [%]	Ratio [2] [%]	Ratio [3] [%]
CCCCCCCCCCCCCC[C@@H](O)[C@@H](O)[C@H](CO[C@H]1O[C@H](CO)[C@H](O)[C@H](O)[C@H]1O)NC(=O)CCCCOc1ccc(/N=N/c2ccccc2)cc1	0.06	0.09	0.28
CCCCCCCCCCCCCC[C@@H](O)[C@@H](O)[C@H](CO[C@H]1O[C@H](CO)[C@H](O)[C@H](O)[C@H]1O)NC(=O)CCCCCCCCOc1ccc(/N=N\c2ccccc2)cc1	0.48	0.37	< 0.02
CCCCCCCCCCCCCC[C@@H](O)[C@@H](O)[C@H](CO[C@H]1O[C@H](CO)[C@H](O)[C@H](O)[C@H]1O)NC(=O)CCCCCCCCCCOc1ccc(/N=N/c2ccccc2)cc1	0.5	0.36	< 0.02
CCCCCCCCCCCCCC[C@@H](O)[C@@H](O)[C@H](CO[C@H]1O[C@H](CO)[C@H](O)[C@H](O)[C@H]1O)NC(=O)CCCCCCCCOc1ccc(/N=N/c2ccccc2)cc1	0.4	0.28	< 0.02
CCCCCCCCCCCCCC[C@@H](O)[C@@H](O)[C@H](CO[C@H]1O[C@H](CO)[C@H](O)[C@H](O)[C@H]1O)NC(=O)CCCCCCOc1ccc(/N=N/c2ccccc2)cc1	0.31	0.35	< 0.02
CCCCCCCCCCCCCCCCCCCCCCCCCC(=O)N[C@@H](CO[C@H]1O[C@H](CO)[C@H](O)[C@H](O)[C@H]1O)[C@H](O)[C@H](O)CCCCCCCCCCCCCC	0.66	0.45	< 0.02
CCCCCCCCCCCCCC[C@@H](O)[C@@H](O)[C@H](CO[C@H]1O[C@H](CO)[C@H](O)[C@H](O)[C@H]1O)NC(=O)CCCCOc1ccc(/N=N\c2ccccc2)cc1	0.05	0.05	0.57
CCCCCCCCCCCCCC[C@@H](O)[C@@H](O)[C@H](CO[C@H]1O[C@H](CO)[C@H](O)[C@H](O)[C@H]1O)NC(=O)CCCCCCCCCCOc1ccc(/N=N\c2ccccc2)cc1	0.57	0.44	< 0.02
CCCCCCCCCCCCCC[C@@H](O)[C@@H](O)[C@H](CO[C@H]1O[C@H](CO)[C@H](O)[C@H](O)[C@H]1O)NC(=O)CCCCCCOc1ccc(/N=N\c2ccccc2)cc1	0.42	0.4	< 0.02
